Source: patent US20100189797A1, “ORAL ANTIDEPRESSANT FORMULATION” (priority 2002, published 2010)

Experiments:
stressed rats = test: Tests made on rats: activity level of stressed rats; type: in vivo; details: 5 mg fluoxetine per kg and/or 50 mg ASA per kg, unstressed control 30, stressed 2
Procedure: Four groups of rats have been stressed. One group of rats remain unstressed so as to serve as control.
After being stressed, the rats of the first group received a dose of 50 mg ASA per kg. The second group of rats received no treatment. The third group of rats received 5 mg fluoxetine per kg, and the fourth group of rats received simultaneously 5 mg fluoxetine+50 mg ASA per kg.
The treatment was continued during 3 weeks.
In said test, the doses of ASA and fluoxetine have been adapted for rats.

SSRI responding human = test: Higher dose of ASA administered to SSRI responding human; type: in vivo; details: ASA dose of 100 mg
volunteers = test: Informal tests on volunteers: oral ASA dose with oral antidepressant; type: in vivo, human; details: oral ASA less than 50 mg with an antidepressant
Procedure: From said tests and informal tests made on volunteers, in which after (just after, less than 5 minutes after) and prior oral administration of an antidepressant, a dose of ASA was orally administered, it appears that the oral dose of ASA had to be lowered to less than 50 mg, especially between 5 and 50 mg.
From this test, it seems that the antidepressant action could already be achieved in less than 7 days, and even in less than 3 to 4 days, although when not using low dose of ASA, the antidepressant action is for example of at least 4 weeks for SSRI.

Compound: CNCCC(Oc1ccc(C(F)(F)F)cc1)c1ccccc1 (racemic) [fluoxetine, (±)-N-methyl-3-phenyl-3-[(α-α-α-trifluoro-p-tolyl)oxy] propylamine]
- activity after 1 week of treatment (stressed rats): no increase at all of the activity
- activity after three weeks of treatment (stressed rats): about 25

Compound: CC(=O)Oc1ccccc1C(=O)O [ASA, acetyl salicylic acid]
- influence on the time of onset of antidepressant action (SSRI responding human): no influence or even to have a negative influence
- bleeding (volunteers): no bleeding was observed
- activity after 1 week of treatment (stressed rats): no increase at all of the activity
- activity after three weeks of treatment (stressed rats): no improvement of activity
